Measurements reported in article PMC5228037, “Discovery and Mechanistic Characterization of Selective Inhibitors of H2S-producing Enzyme: 3-Mercaptopyruvate Sulfurtransferase (3MST) Targeting Active-site Cysteine Persulfide” (Scientific Reports, 2017).

Molecular target: T1, recombinant CSE (Rattus norvegicus, UniProt P18757)
T1 construct: GST (N, cleaved yes); made in house; host or cells: E. coli DH5α
Experiment: Inhibitory activity towards purified CSE by gas chromatography
Type: biochemical
Settings: 100 μM compound, 10 mM L-cysteine
Experimental: Figure 2 Selectivity assessment of hit compounds for 3MST over other H2S/polysulfides-producing enzymes and rhodanese. (a) 3MST-Inhibitory activity of hit compounds at 10 and 100 μM in cell lysate of 3MST-expressing HEK293 cells. 100 μM 3MP and 100 μM DTT were added to the solution containing 0.1% DMSO as a cosolvent, and the mixture was incubated at 37 °C for 15 min. H2S production was measured by gas chromatography. All data are presented as the mean ± S.D. (100 μM: n = 3 or 4; 10 μM: n = 3). (b) Selectivity assessment of hit compounds at 100 μM towards CBS and CSE. Only DMSO was added to the control sample instead of DMSO solution containing hit compounds. H2S production was monitored by gas chromatography. All data are presented as the mean (n = 3). (c) Detection method for rhodanese activity (Sörbo method). (d) Selectivity assessment of hit compounds towards rhodanese. The results are mean ± S.D. (n = 4, three times). These values were determined based upon the absorbance of [Fe(SCN)3] at 460 nm (Sӧrbo method). Bovine rhodanese 1.3–1.7 units/mL, substrate: 52 mM Na2S2O3, 50 mM KCN, 0.004% (w/v) BSA, 100 μM compound and DMSO 1% (v/v) in 88 mM potassium phosphate buffer (pH 8.6) at room temperature for 5 min incubation. (e) Fluorescence confocal microscopic images of live COS7 cells transfected with 3MST or an empty vector[9] as a control. Cells were incubated with 50 μM SSP4, a fluorescent probe for sulfane sulfur, and 10 μM, 1 μM, 0.5 μM, 0.1 or 0 μM compound 3 in DMEM containing 0.6% DMSO for 30 min, then washed with HBSS and placed in fresh DMEM with 0‒10 μM compound 3 (Pre). 500 μM 3MP was added to the cells and the cells were incubated for 10 min (10 min). (f) Graphic representation of (e). F/F0 was calculated by dividing the fluorescence intensity of cells after addition of 500 μM 3MP (10 min) by that of cells before addition of 500 μM 3MP (Pre), then the mean F/F0 was determined from 5 cells. All data represent the mean ± standard error of the mean (SEM) of three experiments.
GST-tagged rat CSE-HA or rat CBS-HA was expressed in E. coli DH5α as follows. […]

Compound: Cc1cc(=O)[nH]c(SCC(=O)c2cccc3ccccc23)n1 [compound 3]
- Inhibition of recombinant CSE enzymatic activity (H2S production): almost inactive

Compound: NC(=O)c1ccsc1NC(=O)CSc1nc2ccccc2c(=O)[nH]1 [compound 1]
- inhibition at 100 µM (read-out: Inhibition of recombinant CSE enzymatic activity (H2S production)): ~25%

Compound: Cc1sc2nc(SCC(=O)c3ccc(O)cc3O)[nH]c(=O)c2c1C [compound 2]
- Inhibition of recombinant CSE enzymatic activity (H2S production): enhanced H2S production
